# Patent US20250295668A1, “METHODS FOR INDUCING COLANIC ACID BIOSYNTHESIS” (priority 2024, published 2025)
# “Also recorded” adds a separate entry of the source.
# How the values were obtained:
# E. coli = test: Bacterial growth under low-dose cephaloridine; format: cell-based; conditions: low-dose cephaloridine vs vehicle-treated E. coli
# PBP1a = PBP1a (Escherichia coli, UniProt P02918); conditions: E. coli, literature; cited from earlier work
# [1] = Age-related metabolic dysfunction in mice, cephaloridine in drinking water; format: in vivo; conditions: oral 2 μg/mL
# Method: Methods: Co-housed 12-month-old […] mice were given MG1655 E. coli at 1×10^8 CFU/mL through distilled drinking water (100 mL) for 24 hours to maintain E. coli occupancy in the mouse gut microbiota. Subsequently, mice received 2 μg/mL cephaloridine through drinking water (100 mL) for 60 hours. […] This entire procedure was then repeated. Cephaloridine dosages were calculated as follows. Briefly, a typical mouse used in this study consumed 5-10 ml of water per day and weighed between 30-40 g. Using the 2 μg/mL concentration, a lower bound of 0.25 mg/kg (0.002 mg/mL×5 mL=0.04 kg) and a higher bound of 0.67 mg/kg (0.002 mg/mL×10 mL=0.03 kg) were identified.
# E. coli deletion mutants = test: Colanic acid measurement in E. coli deletion mutants; format: cell-based; conditions: low-dose cephaloridine
# Method: For colanic acid quantification, E. coli Keio mutants and the parental strain BW25113 were cultured overnight at 37° C. in M9 minimum medium [PMID: 28436966]. Bacteria were then removed by centrifugation and filtered for colanic acid measurement.
# (§1) The desired bacterial strain was first inoculated and cultured in M9 minimum medium overnight at 37° C. to obtain the seeding culture. The OD 600 was measured, and the seeding bacteria were diluted to OD600=0.02 in M9 minimum medium for another 16 hours. After the incubation, bacterial cultures were collected in 50 mL tubes, spun down at 4,000 g at 4° C. for 30 min, filtered, and 25 mL of supernatant was collected per 50 ml conical tube. Ice-cold 100% ethanol (EtOH) was added to make a final 50% EtOH solution for precipitation, and the mixture was kept at 4° C. overnight. Once precipitation occurred, the liquid was carefully removed after centrifugation at 4,000 g at 4° C. for 50 min. The pellet was washed once with cold 80% EtOH and then air-dried in a hood. The pellet from every 50 mL culture was resuspended in 500 μL distilled H2O. The solution was sonicated for 60 minutes at 37° C., followed by centrifugation at 4000 g at 4° C. for 10 minutes. A 200 μL sample was mixed with 30 μL hydrochloric acid (320331-500 mL, Sigma-Aldrich) and boiled for 2 hours. Subsequently, 60 μL 5M NaOH and 150 μL NaHCO3/NaOH buffer were added to reach a pH of 6-8, calibrated by 1M HCl or NaOH solutions. The fucose quantification assay was then carried out using a K-FUCOSE kit (Megazyme) according to the manufacturer's protocol.
# The molecular mechanism behind the induction of colanic acid by low-dose cephaloridine was investigated. It was suspected that regulation of the cps operon was centered on the well-known RCS two-component system. Canonically, the RcsC sensor histidine kinase situated in the inner membrane autophosphorylates in response to environmental cues, then the RcsD phosphotransferase transmits the phosphoryl group to the cytosolic response regulator RcsB, which functions as a transcription factor to up-regulate the cps operon, with RcsA interacting with RcsB to enhance its binding with the promoter, thereby stimulating transcriptional activation (FIG. 4A). To assess the necessity of the RCS system in colanic acid induction by low-dose cephaloridine, the E. coli deletion mutants of rcsA, rcsB, rcsC, and rcsD were treated with cephaloridine and colanic acid production was measured in their respective culture mediums.
# Considering β-lactam antibiotics show preferential affinities to various penicillin-binding proteins (PBPs) [PMID: 25733506] [PMID: 1103132], the role of these inner membrane proteins in colanic acid induction upon low-dose cephaloridine treatment was determined. […] (FIG. 5A).
# To investigate potential mediation of colanic acid induction by these kinases, E. coli deletion mutants of btsS, glrK, and zraS were treated with low-dose cephaloridine and colanic acid levels in their respective culture mediums were measured. Due to slow growth in the M9 culture medium, the rstB deletion mutant could not be evaluated.
# MG1655 E. coli = test: Colanic acid production in MG1655 commensal E. coli; format: cell-based; conditions: MG1655, low-dose cephaloridine, 37° C.
# Method: as §1, with “A 200 μL sample was mixed with 30 μL hydrochloric acid (320331-500 mL, Sigma-Aldrich) and boiled for 2 hours. Subsequently, 60 μL 5M NaOH and 150 μL NaHCO3/NaOH buffer were added to reach a pH of 6-8, calibrated by 1M HCl or NaOH solutions.” left out
# MG1655, a human-derived commensal K12 strain, was treated with a low dose of cephaloridine at 37° C., which induced colanic acid production (FIG. 3A). […] The luminal content of mice ileum was harvested after 3 hours of cephaloridine administration and were imaged for fluorescence. […]
# Sequence of PBP1a (P02918 whole entry): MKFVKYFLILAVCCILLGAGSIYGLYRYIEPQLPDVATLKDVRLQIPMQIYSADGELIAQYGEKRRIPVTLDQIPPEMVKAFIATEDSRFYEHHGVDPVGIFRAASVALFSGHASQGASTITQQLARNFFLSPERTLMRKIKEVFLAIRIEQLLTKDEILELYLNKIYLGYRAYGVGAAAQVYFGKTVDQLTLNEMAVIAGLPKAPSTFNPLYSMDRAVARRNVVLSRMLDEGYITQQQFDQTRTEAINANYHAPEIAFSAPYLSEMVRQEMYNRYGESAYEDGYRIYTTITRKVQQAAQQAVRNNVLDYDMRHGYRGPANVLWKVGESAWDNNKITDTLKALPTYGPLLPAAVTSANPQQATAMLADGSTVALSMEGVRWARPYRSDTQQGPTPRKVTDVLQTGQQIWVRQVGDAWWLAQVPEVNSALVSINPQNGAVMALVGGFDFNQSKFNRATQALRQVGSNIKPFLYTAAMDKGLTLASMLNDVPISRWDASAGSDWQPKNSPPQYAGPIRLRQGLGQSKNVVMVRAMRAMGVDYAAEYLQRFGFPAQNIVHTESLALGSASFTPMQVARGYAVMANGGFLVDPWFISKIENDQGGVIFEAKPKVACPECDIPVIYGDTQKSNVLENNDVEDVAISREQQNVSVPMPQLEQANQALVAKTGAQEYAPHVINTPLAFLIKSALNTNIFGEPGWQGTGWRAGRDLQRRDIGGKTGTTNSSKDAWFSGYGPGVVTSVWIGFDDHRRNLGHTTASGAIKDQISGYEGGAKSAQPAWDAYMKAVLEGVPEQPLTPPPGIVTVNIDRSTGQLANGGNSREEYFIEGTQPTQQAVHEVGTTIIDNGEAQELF
smiles,measurement,setting,value
O=C(Cc1cccs1)N[C@@H]1C(=O)N2C(C(=O)[O-])=C(C[n+]3ccccc3)CS[C@H]12 [cephaloridine],effect on bacterial growth,E. coli,did not hinder bacteria growth; also recorded: does not alter bacterial growth
same,binding to PBP1a,PBP1a,primarily binds to PBP1a
same,increase in plasma insulin between 12 and 18 months of age vs controls,[1]; female mice,lower
same,age-related increase in LDL:HDL ratio,[1]; male mice,suppressed
same,plasma HDL,[1]; male mice,not affected
same,plasma LDL between 12 and 18 months of age,[1]; male mice,remain nearly unchanged
same,amount of colanic acid vs treated wild-type strain,E. coli deletion mutants; DacB deletion mutant (PBP4),even greater amount of colanic acid than the wild-type strain
same,induction of colanic acid,E. coli deletion mutants; DacB deletion mutant (PBP4),did induce colanic acid production
same,induction of colanic acid,E. coli deletion mutants; mrcA deletion mutant (PBP1a),failed to induce colanic acid
same,induction of colanic acid,E. coli deletion mutants; rcsA deletion mutant,completely abolished the induction of colanic acid
same,induction of colanic acid,E. coli deletion mutants; rcsB deletion mutant,completely abolished the induction of colanic acid
same,induction of colanic acid,E. coli deletion mutants; rcsC deletion mutant,no impact on the induction of colanic acid
same,induction of colanic acid,E. coli deletion mutants; rcsD deletion mutant,no impact on the induction of colanic acid
same,induction of colanic acid,E. coli deletion mutants; zraS deletion mutant,suppressed the induction of colanic acid
same,colanic acid production increase,MG1655 E. coli,3.2 fold
